In patent publication US20230159532A1, “PARATHYROID HORMONE (PTH) RECEPTOR ANTAGONISTS AND USES THEREOF” (Crinetics Pharmaceuticals, Inc., priority 2021, published 2023):

Molecular target: T1, human PTHR1 receptor (Homo sapiens, UniProt Q03431)
T1 construct: purchased Eurofins HTS030M
T1 sequence (Q03431 27-593): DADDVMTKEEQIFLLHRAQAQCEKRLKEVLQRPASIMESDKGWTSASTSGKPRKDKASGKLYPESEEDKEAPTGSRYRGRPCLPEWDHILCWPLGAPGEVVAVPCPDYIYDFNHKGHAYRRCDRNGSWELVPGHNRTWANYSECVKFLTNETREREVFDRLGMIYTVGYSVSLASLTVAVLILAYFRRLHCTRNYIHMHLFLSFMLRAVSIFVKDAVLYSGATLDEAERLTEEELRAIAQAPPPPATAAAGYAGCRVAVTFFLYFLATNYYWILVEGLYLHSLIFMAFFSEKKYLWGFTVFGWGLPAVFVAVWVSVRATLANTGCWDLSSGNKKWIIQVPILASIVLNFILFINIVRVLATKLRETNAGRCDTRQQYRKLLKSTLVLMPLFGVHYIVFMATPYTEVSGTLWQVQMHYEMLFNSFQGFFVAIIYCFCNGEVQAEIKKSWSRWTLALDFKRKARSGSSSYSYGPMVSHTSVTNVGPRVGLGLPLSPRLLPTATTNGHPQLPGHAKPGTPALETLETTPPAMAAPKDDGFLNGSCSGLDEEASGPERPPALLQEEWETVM
Assay: Competitive antagonist binding assay for hPTH-R1 (radioactive competition binding, SPA beads)
Conditions: human PTHR1 membranes, [125I]-[Nle8,18,Tyr34]-PTH(1-34) 0.2 nM, 90 minutes at room temperature; read-out: hPTHR1 Ki
Method in brief: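 Displacement of 0.2 nM radioiodinated [Nle8,18,Tyr34]-PTH(1-34) from membrane-bound human PTHR1 measured by scintillation proximity after 90 min at room temperature. Compounds typically 0-10,000 nM final, pH 7.4 HEPES/Mg/Ca buffer with BSA and detergent. Ki calculated from competition data.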

SMILES	Ki
Cc1cc(Cl)cc2c1-c1cc(F)cnc1N(C)C(=O)N2c1c(F)cc(NCCNCCCC(=O)O)cc1F [1-77, 4-({2-[(4-{13-chloro-4-fluoro-8,15-dimethyl-9-oxo-6,8,10-triazatricyclo[9.4.0.0^2,7]pentadeca-1(11),2(7),3,5,12,14-hexaen-10-yl}-3,5-difluorophenyl)amino]ethyl}amino)butanoic acid]	< 100 nM
CNCCNc1cc(F)c(N2C(=O)N(CCO)c3ncc(F)cc3-c3ccc(C#N)cc32)c(F)c1 [1-121, 10-(2,6-difluoro-4-{[2-(methylamino)ethyl]amino}phenyl)-4-fluoro-8-(2-hydroxyethyl)-9-oxo-6,8,10-triazatricyclo[9.4.0.0^2,7]pentadeca-1(11),2(7),3,5,12,14-hexaene-13-carbonitrile]	100 to 1000 nM
CCN1C(=O)N(c2c(F)cc(NCCNCCO)cc2F)c2cc(Cl)ccc2-c2cc(F)cnc21 [1-17, 13-chloro-10-[2,6-difluoro-4-({2-[(2-hydroxyethyl)amino]ethyl}amino)phenyl]-8-ethyl-4-fluoro-6,8,10-triazatricyclo[9.4.0.0^2,7]pentadeca-1(11),2(7),3,5,12,14-hexaen-9-one]	< 100 nM
CCN1C(=O)N(c2c(F)cc(NCCNCCO)cc2F)c2cc(Cl)cc(C#N)c2-c2cc(F)cnc21 [1-134, 13-chloro-10-[2,6-difluoro-4-({2-[(2-hydroxyethyl)amino]ethyl}amino)phenyl]-8-ethyl-4-fluoro-9-oxo-6,8,10-triazatricyclo[9.4.0.0^2,7]pentadeca-1(11),2(7),3,5,12,14-hexaene-15-carbonitrile]	< 100 nM
CCN1C(=O)N(c2c(F)cc(NCC3CNC3)cc2F)c2cc(C#N)ccc2-c2cc(Cl)cnc21 [1-145, 10-(4-{[(azetidin-3-yl)methyl]amino}-2,6-difluorophenyl)-4-chloro-8-ethyl-9-oxo-6,8,10-triazatricyclo[9.4.0.0^2,7]pentadeca-1(11),2(7),3,5,12,14-hexaene-13-carbonitrile]	< 100 nM
CCN1C(=O)N(c2c(F)cc(NCCNCCN(C)C)cc2F)c2cc(C#N)ccc2-c2cc(Cl)cnc21 [1-132, 4-chloro-10-{4-[(2-{[2-(dimethylamino)ethyl]amino}ethyl)amino]-2,6-difluorophenyl}-8-ethyl-9-oxo-6,8,10-triazatricyclo[9.4.0.0^2,7]pentadeca-1(11),2(7),3,5,12,14-hexaene-13-carbonitrile]	< 100 nM
CCN1C(=O)N(c2c(F)cc(N3CC[C@@H](N)C3)cc2F)c2cc(Cl)cc(C)c2-c2cc(F)cnc21 [1-65, 10-{4-[(3R)-3-aminopyrrolidin-1-yl]-2,6-difluorophenyl}-13-chloro-8-ethyl-4-fluoro-15-methyl-6,8,10-triazatricyclo[9.4.0.0^2,7]pentadeca-1(11),2(7),3,5,12,14-hexaen-9-one]	< 100 nM
CCN1C(=O)N(c2c(F)cc(NCCNCCNC(N)=O)cc2F)c2cc(C#N)ccc2-c2cc(Cl)cnc21 [1-140, [2-({2-[(4-{4-chloro-13-cyano-8-ethyl-9-oxo-6,8,10-triazatricyclo[9.4.0.0^2,7]pentadeca-1(11),2(7),3,5,12,14-hexaen-10-yl}-3,5-difluorophenyl)amino]ethyl}amino)ethyl]urea]	< 100 nM
CCN1C(=O)N(c2c(F)cc(NCCN[C@@H](C)C(=O)O)cc2F)c2cc(C#N)ccc2-c2cc(Cl)cnc21 [1-219, (2S)-2-({2-[(4-{4-chloro-13-cyano-8-ethyl-9-oxo-6,8,10-triazatricyclo[9.4.0.0^2,7]pentadeca-1(11),2(7),3,5,12,14-hexaen-10-yl}-3,5-difluorophenyl)amino]ethyl}amino)propanoic acid]	< 100 nM
CCN1C(=O)N(c2c(F)cc(NCCNC[C@H]3CCC(=O)N3)cc2F)c2cc(C#N)ccc2-c2cc(Cl)cnc21 [1-170, 4-chloro-10-(2,6-difluoro-4-{[2-({[(2R)-5-oxopyrrolidin-2-yl]methyl}amino)ethyl]amino}phenyl)-8-ethyl-9-oxo-6,8,10-triazatricyclo[9.4.0.0^2,7]pentadeca-1(11),2(7),3,5,12,14-hexaene-13-carbonitrile]	< 100 nM
CCN1C(=O)N(c2c(F)cc(NCCN)cc2F)c2cc(Cl)ccc2-c2c1ncc(Cl)c2C [3-8, 10-{4-[(2-aminoethyl)amino]-2,6-difluorophenyl}-4,13-dichloro-8-ethyl-3-methyl-6,8,10-triazatricyclo[9.4.0.0^2,7]pentadeca-1(11),2(7),3,5,12,14-hexaen-9-one]	100 to 1000 nM
CN1C(=O)N(c2c(F)cc(NCCN)cc2F)c2cc(C#N)ccc2-c2cc(Cl)cnc21 [1-223, 10-{4-[(2-aminoethyl)amino]-2,6-difluorophenyl}-4-chloro-8-methyl-9-oxo-6,8,10-triazatricyclo[9.4.0.0^2,7]pentadeca-1(11),2(7),3,5,12,14-hexaene-13-carbonitrile]	< 100 nM
CNCCNc1cc(F)c(N2C(=O)N(C)c3ncc(Cl)cc3-c3c(F)cc(C#N)cc32)c(F)c1 [1-115, 4-chloro-10-(2,6-difluoro-4-{[2-(methylamino)ethyl]amino}phenyl)-15-fluoro-8-methyl-9-oxo-6,8,10-triazatricyclo[9.4.0.0^2,7]pentadeca-1(11),2(7),3,5,12,14-hexaene-13-carbonitrile]	< 100 nM
CC(C)N1C(=O)N(c2c(F)cc(NCCNCCO)cc2F)c2cc(C#N)cc(F)c2-c2cc(F)cnc21 [1-108, 10-[2,6-difluoro-4-({2-[(2-hydroxyethyl)amino]ethyl}amino)phenyl]-4,15-difluoro-9-oxo-8-(propan-2-yl)-6,8,10-triazatricyclo[9.4.0.0^2,7]pentadeca-1(11),2(7),3,5,12,14-hexaene-13-carbonitrile]	< 100 nM
CCN1C(=O)N(c2c(F)cc(NCCNC)cc2F)c2cc(Cl)ccc2-c2cc(C)cnc21 [1-18, 13-chloro-10-(2,6-difluoro-4-{[2-(methylamino)ethyl]amino}phenyl)-8-ethyl-4-methyl-6,8,10-triazatricyclo[9.4.0.0^2,7]pentadeca-1(11),2(7),3,5,12,14-hexaen-9-one]	< 100 nM
CCN1C(=O)N(c2c(F)cc(NCCNC3CCOC3)cc2F)c2cc(Cl)ccc2-c2cc(F)cnc21 (stereo not shown) [1-20, 13-chloro-10-[2,6-difluoro-4-({2-[(oxolan-3-yl)amino]ethyl}amino)phenyl]-8-ethyl-4-fluoro-6,8,10-triazatricyclo[9.4.0.0^2,7]pentadeca-1(11),2(7),3,5,12,14-hexaen-9-one]	< 100 nM
CCN1C(=O)N(c2c(F)cc(NCCN[C@@H](CCSC)C(=O)O)cc2F)c2cc(C#N)ccc2-c2cc(Cl)cnc21 [1-233, (2S)-2-({2-[(4-{4-chloro-13-cyano-8-ethyl-9-oxo-6,8,10-triazatricyclo[9.4.0.0^2,7]pentadeca-1(11),2(7),3,5,12,14-hexaen-10-yl}-3,5-difluorophenyl)amino]ethyl}amino)-4-(methylsulfanyl)butanoic acid]	< 100 nM
CCN1C(=O)N(c2c(F)cc(NCCN[C@@H]3CC[C@@H]3O)cc2F)c2cc(C#N)ccc2-c2cc(C(F)(F)F)cnc21 [1-184, 10-{2,6-difluoro-4-[(2-{[(1R,2S)-2-hydroxycyclobutyl]amino}ethyl)amino]phenyl}-8-ethyl-9-oxo-4-(trifluoromethyl)-6,8,10-triazatricyclo[9.4.0.0^2,7]pentadeca-1(11),2(7),3,5,12,14-hexaene-13-carbonitrile]	< 100 nM
CCN1C(=O)N(c2c(F)cc(NCCNCCN)cc2F)c2cc(C#N)ccc2-c2cc(F)cnc21 [1-237, 10-[4-({2-[(2-aminoethyl)amino]ethyl}amino)-2,6-difluorophenyl]-8-ethyl-4-fluoro-9-oxo-6,8,10-triazatricyclo[9.4.0.0^2,7]pentadeca-1(11),2(7),3,5,12,14-hexaene-13-carbonitrile]	< 100 nM
CCN1C(=O)N(c2c(F)cc(NCCNCCO)cc2F)c2cc(C#N)ccc2-c2cc(F)ccc21 [3-18, 8-[2,6-difluoro-4-({2-[(2-hydroxyethyl)amino]ethyl}amino)phenyl]-10-ethyl-14-fluoro-9-oxo-8,10-diazatricyclo[9.4.0.0^2,7]pentadeca-1(11),2(7),3,5,12,14-hexaene-5-carbonitrile]	< 100 nM
CCN1C(=O)N(c2c(F)cc(NCCNCC(C)(C)O)cc2F)c2cc(C#N)ccc2-c2cc(Cl)cnc21 [1-138, 4-chloro-10-[2,6-difluoro-4-({2-[(2-hydroxy-2-methylpropyl)amino]ethyl}amino)phenyl]-8-ethyl-9-oxo-6,8,10-triazatricyclo[9.4.0.0^2,7]pentadeca-1(11),2(7),3,5,12,14-hexaene-13-carbonitrile]	< 100 nM
CCN1C(=O)N(c2c(F)cc(NCCNCCO)cc2F)c2cc(Cl)cc(F)c2-c2cc(Cl)cnc21 [1-60, 4,13-dichloro-10-[2,6-difluoro-4-({2-[(2-hydroxyethyl)amino]ethyl}amino)phenyl]-8-ethyl-15-fluoro-6,8,10-triazatricyclo[9.4.0.0^2,7]pentadeca-1(11),2(7),3,5,12,14-hexaen-9-one]	< 100 nM
